{"source": "paper PMC8478282", "about": "“Recombinant Peptide Mimetic NanoLuc Tracer for Sensitive Immunodetection of Mycophenolic Acid” (Analytical Chemistry, 2021)", "key": {"[1]": {"assay": "Biosensor analysis of blood samples of patients and healthy controls", "assay_type": "in vivo, human", "conditions": "free MPA", "protocol": "(§1) To detect MPA with the A2-NanoLuc fusion protein, a bead-based assay was carried out on a black microtiter well plate by immobilizing the biotinylated anti-MPA onto streptavidin-coated magnetic beads (Figure 1). Briefly, the wells were first blocked with assay buffer (SuperBlock with 0.05% Tween-20) for 1 h. Then, 60 μL of 5 μg mL^–1 biotinylated anti-MPA in assay buffer and 20 μL of streptavidin beads (1:50 dilution from the stock) were added to the wells and incubated for 30 min at RT. After washing three times with PBST, 60 μL of a solution containing different concentrations of MPA and 77 μg mL^–1 of the A2-NanoLuc in assay buffer was added to the wells and incubated 30 min at RT. Once the beads were washed, 60 μL of NanoGLO substrate in PBS were added and bioluminescence was measured after a 2 min incubation at 470 nm with a bandwidth of 80 nm using a CLARIOstar microplate reader.\n(§2) solution as described before.\n(§3) (OTA) Fab fragment on reference surface (flow channel 1). As running buffer, 1× PBS-P\n(§4) After dissociation phase of 5 min, regeneration\nfollowed by stabilization period of 60s. All samples were analyzed in replicates. The result s were\nfor MPAG, Acyl-MPAG and MPA respectively. The rt were reproducible between runs. Fig ure\nThe three metabolites were\ncurves was >0.99 for all compounds tested.\nand centrifuged at 12,045 g for 30 min.\nsamples and vortexed for 5 minutes at 1000 rpm. […]"}, "anti-MPA [2]": {"system": "anti-MPA", "assay": "Bead-based competitive immunoassay with synthetic biotinylated peptide A2", "assay_type": "binding"}, "anti-MPA [3]": {"system": "anti-MPA", "assay": "Bead-based competitive phage immunoassay with clone A2", "assay_type": "binding", "conditions": "Amplex UltraRed fluorescence, n = 3", "protocol": "(§5) Briefly, black microtiter plates were blocked with 280 μL of assay buffer for 1 h at RT and subsequently washed three times with PBS. Then, the biotinylated anti-MPA (1.2 μg mL^–1) and neutravidin-coated magnetic beads (125 μg mL^–1) functionalized as described before,[18] were added to the wells in the assay buffer (total volume 260 μL per well), and incubated for 30 min at RT. After washing the beads using a plate washer with a magnetic support, the phage clone (10^11 pfu mL^–1) and increasing concentrations of free MPA were added to the wells (in assay buffer, 60 μL per well) and incubated for 30 min at RT. The beads were washed again to remove the excess, followed by incubation with HRP-conjugated anti-M13 antibody (1:5000 dilution in assay buffer; 80 μL per well) for 30 min at RT. Finally, after washing, 80 μL of Amplex UltraRed solution was added to each well, and the fluorescence was monitored with a CLARIOstar microplate reader (BMG Labtech) (λex = 530 nm and λem = 590 nm)."}, "[4]": {"conditions": "serum; cited from earlier work", "description": "Mycophenolic acid (MPA) is a mycotoxin produced by Penicillium fungi, and it is widely used as an immunosuppressant drug to prevent organ rejection in transplanted patients.[1] Recently, it has also been tested as a chemotherapeutic agent as it inhibits the proliferation of cancer cells.[2] Due to the small therapeutic window that MPA has, it is very important to monitor correctly its levels inside the human body.[3] MPA is mainly found in the serum, but only 1% of the total MPA exists in the free form, which is the one responsible for its pharmacological activity.[3],[4] Therefore, the availa ..."}, "[5]": {"system": "biotinylated anti-MPA Fab antibody", "assay": "Bioluminescent bead-based competitive immunoassay with A2-NanoLuc / NanoLuc-A2 tracer", "assay_type": "binding", "conditions": "for Cross-reactivity: IC50 for MPA divided by the IC50 of the interferent", "protocol": "as §1\nThe matrix effect was tested in the presence of different dilutions of the ultrafiltered serum samples [1/2, 1/6, and 1/8, (v/v)], treated following a previously described procedure,[11] in PBST. […] Therefore, such dilution was used for further experiments."}, "anti-MPA Fab antibody": {"system": "anti-MPA Fab antibody", "assay": "SPR (Biacore T200), 1:1 Langmuir kinetics, binding to immobilized anti-MPA Fab", "conditions": "for Dissociation rate constant kd: Biacore T200, CM5 chip, anti-MPA (14) Fab immobilized, anti-OTA Fab reference, 1x PBS-P, +25 °C, dissociation phase 5 min, averages (± SE), seven concentrations; for Binding to anti-MPA Fab surface: SPR, concentration-dependent responses", "description": "To compare the binding properties of the biotinylated cyclic peptide and MPA toward the anti-MPA antibody, label-free SPR technology was applied. In the binding experiments, previously identified, produced, and purified Fab antibodies recognizing either MPA or ochratoxin A were immobilized onto sensor chip surfaces.[22] The same experimental conditions were used to study the binding properties of cyclic peptide (A2) and MPA. The results are presented in Figures S3 and S4 and summarized in Table S1 (Supporting Information).\nas §2, §3, §4\nfollowed by stabilization period of 60s. All samples were analyzed in replicates. […]"}, "[6]": {"conditions": "human, in vivo", "quoted_text": "Volunteers donated whole blood samples with permission from the Ethics Committee from Hospital Clínico Universitario de Valladolid, Spain (no. PI 21-2245). The blood samples were kept at 20 °C during transport and storage. The samples were treated following the procedure described previously (see the Supporting Information for details).[11]\n100µL of a 0.1 µg mL−1 bi o -A2 solution were added to the neutravidin-functionalized beads\nsolution as described before. After a 30-min incubation and a similar washing step, 100 µL of a\nsolution containing 0.5µg mL −1 of anti-MPA and different concentrations of free MPA,\npreviously incubated during 10 min, were added to the beads and incubated for another 30 m in.\nAfter washing, an anti-IgG-HRP antibody was added, incubated 30 min and washed thereafter.\nFinally, 80 µL of Amplex UltraRed was added and the fluorescence was monitored as described\nThe optimized separation of the three metabolites was performed in gradient elution mode,\nquantified using an internal standard (MPA-LuciferYellow) calibration model using a nine-point\ncalibration curve, with a concentration range (0.5–80 ng mL −1 for MPA; 50–15000ng mL−1 f or\nMPAG and 12– 250ng mL−1 for Acyl-MPAG) for the three metabolites. […]\nanalyzed. Free MPA was analyzed in plasma samples after a 1:8 dilution in SuperBlock + 0.05% […]"}, "anti-MPA [7]": {"system": "anti-MPA", "assay": "Plate-based phage ELISA, direct and competitive", "assay_type": "binding", "protocol": "The assay was carried out at room temperature (RT). The biotinylated anti-MPA (Supporting Information) [5 μg mL^–1 in the assay buffer (SuperBlock supplemented with 0.05% Tween-20); 100 μL per well] was immobilized on streptavidin-coated wells (30 min), followed by three-time washes with PBST. The wells were then blocked with 280 μL of assay buffer for 30 min and washed again three times with PBS. Then, the amplified phage stock (between 10^10 and 10^11 pfu mL^–1; 100 μL per well) was added to the wells in assay buffer and incubated for 1 h with slow shaking. After washing the wells as described above, the HRP-conjugated anti-M13 monoclonal antibody (1:5000 dilution in assay buffer; 100 μL per well) was added to the wells and incubated for 1 h. Finally, the plate was washed three times as described above and 100 μL of ABTS was added to the wells. After 5 min, absorbance at 405 nm was measured in a Varioskan plate reader (Thermo Scientific).\nas §5"}, "[8]": {"conditions": "A2-NanoLuc bead-based bioluminescent assay, n = 3"}}, "note": "Entries after “also recorded” stand apart in the source; their conditions may differ. Bridges are numbered along the chain shown (N, C = ends). Where no end group is shown, it is not given here.", "data": [{"compound": "COc1c(C)c2c(c(O)c1C/C=C(\\C)CCC(=O)O)C(=O)OC2", "note": "[MPA, Mycophenolic acid]", "values": [{"measurement": "MPA detected in control samples", "setting": "[1]; healthy controls H1–H3", "result": "no MPA was detected in the control samples"}, {"measurement": "MPA concentration levels by patient", "setting": "[1]; transplanted patients T1–T5", "result": "patients T1 and T2 had the highest MPA concentration levels"}, {"measurement": "Dynamic range (20–80% inhibition)", "setting": "anti-MPA [2]; biotinylated A2 peptide (0.1 µg/mL) on neutravidin beads, anti-MPA 0.5 µg/mL, Amplex UltraRed fluorescence, n = 3", "result": "2.4–60 ng mL^–1"}, {"measurement": "LOD (10% inhibition)", "setting": "anti-MPA [2]; free MPA, biotinylated A2 peptide (0.1 µg/mL) on neutravidin beads, anti-MPA 0.5 µg/mL pre-incubated 10 min with MPA, 30 min, anti-IgG-HRP, Amplex UltraRed fluorescence, n = 3", "result": 0.94, "unit": "ng mL^–1"}, {"measurement": "LOD (10% inhibition)", "setting": "anti-MPA [3]; free MPA competing with phage clone A2 (10^11 pfu/mL), neutravidin beads with biotinylated anti-MPA, assay buffer, RT, 30 min", "result": 0.69, "unit": "ng mL^–1"}, {"measurement": "Dynamic range (20–80% inhibition)", "setting": "anti-MPA [3]; phage clone A2 (10^11 pfu/mL), neutravidin beads", "result": "1.0–4.1 ng mL^–1"}, {"measurement": "Free form of total MPA", "setting": "[4]", "result": 1, "unit": "%"}, {"measurement": "Dynamic range (20–80% inhibition)", "setting": "[5]; A2-NanoLuc tracer, assay buffer, bioluminescence, n = 3", "result": "0.64–14 ng mL^–1"}, {"measurement": "Matrix effect on dose response curve", "setting": "[5]; PBST vs ultrafiltered serum diluted 1/8 (v/v), p > 0.05, n = 3", "result": "No significant differences"}, {"measurement": "LOD (10% inhibition)", "setting": "[5]; free MPA competing with A2-NanoLuc (77 μg/mL) for biotinylated anti-MPA on streptavidin beads, assay buffer (SuperBlock + 0.05% Tween-20), RT, 30 min, bioluminescence 470 nm, n = 3", "result": 0.26, "unit": "ng mL^–1"}, {"measurement": "IC50", "setting": "[5]; free MPA competing with A2-NanoLuc (77 μg/mL) for biotinylated anti-MPA on streptavidin beads, assay buffer, RT, 30 min, bioluminescence 470 nm, logistic fit, n = 3", "result": "2.9 ± 0.5", "unit": "ng mL^–1"}, {"measurement": "Dissociation rate constant kd", "setting": "anti-MPA Fab antibody", "result": "0.0741 ± 0.0004", "unit": "s⁻¹"}, {"measurement": "Kd", "setting": "anti-MPA Fab antibody; MPA and anti-MPA Fab interaction, in agreement with previous SPR affinity in solution results, read-out: Affinity constant", "result": "~40", "unit": "nM"}, {"measurement": "Binding to anti-MPA Fab surface", "setting": "anti-MPA Fab antibody", "result": "showed binding to the anti-MPA Fab antibody surface"}]}, {"compound": "COc1c(C)c2c(c(O[C@@H]3O[C@H](C(=O)O)[C@@H](O)[C@H](O)[C@H]3O)c1C/C=C(\\C)CCC(=O)O)C(=O)OC2", "note": "[MPAG, mycophenolic acid glucuronide]", "values": [{"measurement": "MPAG level in samples vs biosensor", "setting": "[6]", "result": "below the limit of quantification of the biosensor"}, {"measurement": "Cross-reactivity", "setting": "[5]; [8]", "result": 0.03, "unit": "%"}]}, {"compound": "COc1c(C)c2c(c(O)c1C/C=C(\\C)CCC(=O)O[C@@H]1O[C@H](C(=O)O)[C@@H](O)[C@H](O)[C@H]1O)C(=O)OC2", "note": "[acyl-MPAG, acyl-mycophenolic acid glucuronide]", "values": [{"measurement": "Cross-reactivity", "setting": "[5]; [8]", "result": 58, "unit": "%"}, {"measurement": "Behavior in the assay compared to MPA", "setting": "[5]; cross-reactivity test, A2-NanoLuc bead-based bioluminescent assay", "result": "very similar behavior to MPA"}]}, {"compound": "C=CC[C@@H]1/C=C(\\C)C[C@H](C)C[C@H](OC)[C@H]2O[C@@](O)(C(=O)C(=O)N3CCCC[C@H]3C(=O)O[C@H](/C(C)=C/[C@@H]3CC[C@@H](O)[C@H](OC)C3)[C@H](C)[C@@H](O)CC1=O)[C@H](C)C[C@@H]2OC", "note": "[tacrolimus]", "values": [{"measurement": "Cross-reactivity", "setting": "[5]; [8]", "result": "lower than 0.03%"}]}, {"compound": "A(CEGLYAHWC)GGGSK(Bio)-NH2 (disulfide) [Cyclic peptide (A2)]", "values": [{"measurement": "Competition with free MPA", "setting": "anti-MPA [2]; synthetic biotinylated peptide, competitive neutravidin bead-based assay", "result": "competition at the nanomolar level"}, {"measurement": "Dissociation rate constant kd", "setting": "anti-MPA Fab antibody", "result": "0.583 ± 0.001", "unit": "s⁻¹"}, {"measurement": "Binding to anti-MPA Fab surface", "setting": "anti-MPA Fab antibody", "result": "showed binding to the anti-MPA Fab antibody surface"}, {"measurement": "Association / dissociation relative to MPA", "setting": "anti-MPA Fab antibody; compared to MPA–anti-MPA Fab antibody complex", "result": "slower association and faster dissociation"}]}, {"compound": "ACEGLYAHWC (disulfide 2-10 (inferred)) [A2, phage clone displaying […] with a disulfide bond between the two cysteines; MPA mimetic]", "values": [{"measurement": "Signal in competitive ELISA in the presence of free MPA", "setting": "anti-MPA [7]; 100 ng/mL free MPA added with phage clone A2, data not shown", "result": "significant decrease in the signal"}, {"measurement": "Nonspecific binding", "setting": "anti-MPA [7]; phage ELISA in the absence of anti-MPA", "result": "very low nonspecific binding"}, {"measurement": "Phage ELISA binding to anti-MPA", "setting": "anti-MPA [7]; phage clone vs immobilized biotinylated anti-MPA, signal-to-background, ABTS, absorbance 405 nm", "result": "very high signal-to-background ratio; also recorded: high specificity toward anti-MPA"}]}, {"compound": "cyclosporin", "values": [{"measurement": "Cross-reactivity", "setting": "[5]; [8]", "result": "lower than 0.03%"}]}]}
